In patent US6906205B2, “Spiro and dispiro 1,2,4-trioxolane antimalarials” (Medicines for Malaria Venture MMV, priority 2002, dated 2005):

Legend:
[1] = tested on: ANKA strain of P. berghei; assay: single dose STI in vivo screen in infected mice; parameters: species or system Plasmodium berghei; conditions: for Activity (%) 3 mg/kg SSV po / Activity (%) 10 mg/kg SSV po: percent reduction in parasitemia day 3 post-infection; for Activity (%) 3 mg/kg SSV po: single 3 mg/kg po in SSV; for Activity (%) 10 mg/kg SSV po / Survival (days) 10 mg/kg SSV po: single 10 mg/kg po in SSV
How it was run: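 Groups of 3-5 Moro SPF or NMRI mice infected with the ANKA strain of P. berghei received a single dose of trioxolane on day one post-infection. The compound was given in 3% ethanol and 7% Tween 80 or in SSV (0.5% w/v CMC, 0.5% v/v benzyl alcohol, 0.4% v/v Tween 80, 0.9% w/v sodium chloride in water). Antimalarial activity was scored as percent reduction in parasitemia on day three and as survival time versus untreated controls. Survival to day 30 counted as cure.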

[2] = tested on: parasitemia (malaria infection); assay: onset of action and recrudescence experiments; format: in vivo; conditions: single 100 mg/kg po (SSV) on day +3 post-infection; recrudescence = >5% parasitemia; followed up to 60 days; (n/5) = animals
Description: The onset of drug action was determined after a single fixed dose of 100 mg/kg (SSV vehicle) po to groups of five animals on day +3 post-infection (day 0).

[3] = dosing in dogs; format: in vivo; conditions: dog
Text: (§1) Artesunate is listed as a reference compound.

[4] = tested on: Schistosoma mansoni adult schistosomes (49-day-old); assay: effect on adult schistosomes (49-day-old) in mice; format: in vivo
Description: Mice were infected with 100 Schistosoma mansoni cercariae […]. Each group was treated per os with OZ compounds at single doses of 200, 400, and 600 mg/kg. […] All groups were killed 4 weeks after treatment and the liver and intestine were removed and separated. The liver and intestine were compressed and alive male and female worms could be seen and counted.

[5] = dosing in rats; format: in vivo; conditions: rat
Text: as §1

[6] = tested on: Schistosoma mansoni 21-day-old schistosomules; assay: effect on 21-day-old schistosomules in mice; format: in vivo; conditions: single 200 mg/kg per os, female mice
Description: All groups were killed 4 weeks after treatment and the liver and intestine were removed and separated. The liver and intestine were compressed and alive male and female worms could be seen and counted. The effect of the compounds was evaluated by mean total and female worm burden.

[7] = tested on: Schistosoma mansoni adult schistosomes (49-day-old); assay: effect on adult schistosomes (49-day-old) in mice; format: in vivo; conditions: 1 × 600 mg/kg sc.
[8] = tested on: ANKA strain of Plasmodium berghei; assay: single dose ED50/ED90/ED99 determinations in infected mice; format: in vivo
How it was run: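 Mice (Moro SPF or NMRI, n=3 per group) infected with P. berghei ANKA received a single dose on day 1 post-infection, vehicle 0.5% CMC/0.5% benzyl alcohol/0.4% Tween 80/0.9% NaCl in water. Read-out is percent reduction in parasitemia on day 3; ED values by nonlinear fitting.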

[9] = tested on: P. berghei ANKA strain; assay: prophylactic activity, single 100 mg/kg po dose before infection; format: in vivo, Plasmodium berghei; conditions: reduction of parasitemia day 3 post-infection
[10] = tested on: P. berghei ANKA strain; assay: treatment: 3x3 mg/kg and 3x1 mg/kg po divided doses in infected mice; format: in vivo, Plasmodium berghei; conditions: for Activity (%) p.o. SSV: percent reduction of parasitemia day 4
How it was run: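 NMRI mice infected i.v. with 2×10^7 P. berghei ANKA-parasitized erythrocytes on day 0, then dosed orally in SSV vehicle at 3×3 or 3×1 mg/kg on days 1–3. Day-4 Giemsa smears gave percent parasitemia reduction versus untreated controls; survival to day 30 counted as cure.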

[11] = tested on: P. berghei ANKA strain; assay: treatment: 3x10 mg/kg p.o. divided dose vs 1x30 mg/kg po single dose in infected mice; format: in vivo, Plasmodium berghei; conditions: for Activity (%) p.o. SSV: percent reduction of parasitemia day 4
Description: Moro NMRI male mice (Fü Albino specific pathogen free) weighing 18±2 g were infected intravenously (i.v.) with 2×10^7 P. berghei ANKA strain-infected erythrocytes from donor mice on day 0 of the experiment. From donor mice with circa 30% parasitemia, heparinized blood was taken and diluted in physiological saline to 10^8 parasitized erythrocytes per ml. An aliquot (0.2 ml) of this suspension was injected i.v. into experimental and control groups of mice. […] Throughout the experiments, mice were kept in groups of three or five animals in Makrolon type II cages in an air-conditioned animal room at 22 to 23° C.
They were administered per os (p.o.) in a total volume of 0.01 ml per gram of mouse. The activity of the compound was determined by a variety of methods outlined in subsequent sections. Survival time was also recorded, and survival to day 30 post-infection was considered to be a cure.
The first experiment conducted consisted of administration of a divided 3×10 mg/kg p.o. dose administered on days 1, 2, and 3 post-infection vs. a single 1×30 mg/kg po dose administered on day 1 post-infection. On day 4 post-infection, blood smears of all animals were prepared and stained with Giemsa. […] Compounds were administered orally in the SSV vehicle.

[12] = single dose po in SSV, mice, percent reduction in parasitemia on day three post-infection
[13] = 3 × 1 mg/kg days 1, 2, 3 post-infection
[14] = 3 × 3 mg/kg days 1, 2, 3 post-infection
[15] = 3 × 10 mg/kg days 1, 2, 3 post-infection

CC(C)(N)CNC(=O)C[C@H]1CC[C@]2(CC1)OO[C@]1(O2)C2CC3CC(C2)CC1C3 [OZ277]
Activity (%) 3 mg/kg SSV po [1]: 99.28%
Activity (%) 10 mg/kg SSV po [1]: 99.98%
Survival (days) 10 mg/kg SSV po [1]: 9.3 days
Time of Recrudescence [2]: 13.0 days
IV t1/2 (10 mg/kg) ([3]; IV 10 mg/kg): 1.58 h
Oral t1/2 (10 mg/kg) ([3]; oral 10 mg/kg): 2.468 h
Oral Bioavailability 10 mg/kg ([3]; oral 10 mg/kg, OZ 279, OZ 256, OZ 209 values flagged (V)): 87.9%
Oral Bioavailability 25 mg/kg ([3]; oral 25 mg/kg, OZ 279, OZ 256, OZ 209 values flagged (V)): 96.1%
% reduction of adult worms growth at day 49 after per os application of 400 mg/kg, TWR (%) ([4]; single 400 mg/kg per os): 0/0%
adult worms at day 49, per os 400 mg/kg, DEAD WORM (%) ([4]; single 400 mg/kg per os): 0/0%
% reduction of adult worms growth at day 49 after per os application of 600 mg/kg, TWR (%) ([4]; single 600 mg/kg per os): 17%
adult worms at day 49, per os 600 mg/kg, DEAD WORM (%) ([4]; single 600 mg/kg per os): 14%
IV t1/2 (10 mg/kg) ([5]; IV 10 mg/kg): 1.29 h
Oral Bioavailability 10 mg/kg ([5]; oral 10 mg/kg): 36.9%
Oral Bioavailability 25 mg/kg ([5]; oral 25 mg/kg): 44.1%
Oral t1/2 (25 mg/kg) ([5]; oral 25 mg/kg): 1.51 h
% reduction of schistosomule growth at day 21 after per os application of 200 mg/kg, FWR (%) [6]: 92%
% reduction of schistosomule growth at day 21 after per os application of 200 mg/kg, TWR (%) [6]: 91%
% reduction of adult worms growth, 1 × 600 sc., TWR (%) [7]: 39%
adult worms, 1 × 600 sc., DEAD WORM (%) [7]: 17%
ED50 [8, 12]: 0.78 mg/kg
ED90 [8, 12]: 2.0 mg/kg
ED99 [8, 12]: 4.4 mg/kg

C[C@H]1[C@H](OC(=O)CCC(=O)O)O[C@@H]2O[C@@]3(C)CC[C@H]4[C@H](C)CC[C@@H]1[C@@]24OO3 [AS, artesunate, reference compound]
Activity (%) 3 mg/kg SSV po [1]: 66%
Activity (%) 10 mg/kg SSV po [1]: 87%
Survival (days) 10 mg/kg SSV po [1]: 7.0 days
Prophylactic Activity (%) ([9]; single 100 mg/kg po 24 h before infection): 6.28%
Prophylactic Activity (%) ([9]; single 100 mg/kg po at 0 h): 92.44%
Time of Recrudescence [2]: 8.6 days
Survival (days) p.o. SSV [10, 13]: 6.8 days
Activity (%) p.o. SSV [10, 13]: 39%
Survival (days) p.o. SSV [10, 14]: 9.4 days
Activity (%) p.o. SSV [10, 14]: 78%
Activity (%) p.o. SSV ([11]; 1 × 30 mg/kg single dose day 1 post-infection): 83.83%
Survival (days) p.o. SSV [11, 15]: 11 days
Activity (%) p.o. SSV [11, 15]: 98.62%
Cures ([11]; 3 × 10 mg/kg, survival to day 30 post-infection = cure, cured/treated mice): 0/5
ED50 ([8]; Plasmodium berghei, po): 4.7 mg/kg
ED90 [8, 12]: 19 mg/kg
ED99 [8, 12]: 60 mg/kg
